Source: the NIST ThermoML archive (doi:10.1021/acs.jced.5b00944)
Numbers after ± are expanded uncertainties.

Experiment: xn = mol fraction of the nth substance listed
Details: for viscosity / speed of sound / mass density: 100 kPa, Liquid; for viscosity: Capillary tube (Ostwald / Ubbelohde) method; for speed of sound: Sing-around technique in a fixed-path interferometer; for mass density: Vibrating tube method; for surface tension liquid-gas: Capillary rise

CCCC[N+]1(C)CCCC1.N#CN=C=[N-] [1-butyl-1-methylpyrrolidinium dicyanamide] + O
Details | mass density [kg/m3] | speed of sound [m/s] | surface tension liquid-gas [mN/m] | viscosity [mPa·s]
287.92 K, x2 = 0.0329 | – | – | – | 46.3 ± 0.7
287.92 K, x2 = 0.0994 | – | – | – | 44.7 ± 0.7
287.94 K, x2 = 0.2615 | – | – | – | 37.1 ± 0.5
287.94 K, x2 = 0.4463 | – | – | – | 28.9 ± 0.4
287.95 K, x2 = 0.6509 | – | – | – | 19.6 ± 0.3
287.95 K, x2 = 0.751 | – | – | – | 14.4 ± 0.2
287.97 K, x2 = 0.9 | – | – | – | 5.51 ± 0.07
288.15 K, x2 = 0 | 1019.11 ± 4.1 | 1834.4 ± 2.2 | – | –
288.15 K, x2 = 0.0329 | 1019.02 ± 4.1 | 1834.2 ± 2.2 | – | –
288.15 K, x2 = 0.0993 | 1018.74 ± 4 | 1833.5 ± 2.1 | – | –
288.15 K, x2 = 0.2615 | 1018.26 ± 4 | 1832.2 ± 1.8 | – | –
288.15 K, x2 = 0.4463 | 1017.61 ± 4 | 1832.1 ± 1.5 | – | –
288.15 K, x2 = 0.6509 | 1016.78 ± 4 | 1831.3 ± 1.3 | – | –
288.15 K, x2 = 0.751 | 1016.44 ± 4 | 1825 ± 1.1 | – | –
288.15 K, x2 = 0.9 | 1012.13 ± 4 | 1752.9 ± 1.1 | – | –
288.3 K, x2 = 0.0329 | – | – | 51.9 ± 1.3 | –
288.8 K, x2 = 0.0994 | – | – | 52.4 ± 1.3 | –
288.8 K, x2 = 0.751 | – | – | 54.3 ± 1.2 | –
288.8 K, x2 = 0.9 | – | – | 54.3 ± 1.2 | –
288.9 K, x2 = 0.6509 | – | – | 50.6 ± 1.2 | –
289 K, x2 = 0.4463 | – | – | 51.8 ± 1.2 | –
289.1 K, x2 = 0.2615 | – | – | 52 ± 1.3 | –
297.5 K, x2 = 0.0329 | – | – | 51.4 ± 1.3 | –
297.6 K, x2 = 0.9 | – | – | 53.7 ± 1.2 | –
297.7 K, x2 = 0.4463 | – | – | 51.5 ± 1.2 | –
297.8 K, x2 = 0.0994 | – | – | 52 ± 1.3 | –
297.8 K, x2 = 0.751 | – | – | 53.3 ± 1.2 | –
297.9 K, x2 = 0.2615 | – | – | 51.6 ± 1.3 | –
297.9 K, x2 = 0.6509 | – | – | 50.1 ± 1.2 | –
297.93 K, x2 = 0.0329 | – | – | – | 31.9 ± 0.5
297.93 K, x2 = 0.4463 | – | – | – | 20 ± 0.3
297.94 K, x2 = 0.2615 | – | – | – | 26.1 ± 0.4
297.95 K, x2 = 0.0994 | – | – | – | 31.1 ± 0.5
297.95 K, x2 = 0.751 | – | – | – | 10 ± 0.1
297.96 K, x2 = 0.6509 | – | – | – | 13.4 ± 0.2
297.96 K, x2 = 0.9 | – | – | – | 3.93 ± 0.05
298.15 K, x2 = 0 | 1013.48 ± 4.1 | 1809.6 ± 2.2 | – | –
298.15 K, x2 = 0.0329 | 1013.44 ± 4.1 | 1809.6 ± 2.2 | – | –
298.15 K, x2 = 0.0993 | 1013.07 ± 4 | 1808.5 ± 2.1 | – | –
298.15 K, x2 = 0.2615 | 1012.53 ± 4 | 1807.6 ± 1.8 | – | –
298.15 K, x2 = 0.4463 | 1011.78 ± 4 | 1808.1 ± 1.5 | – | –
298.15 K, x2 = 0.6509 | 1010.69 ± 4 | 1808.3 ± 1.2 | – | –
298.15 K, x2 = 0.751 | 1010.21 ± 4 | 1803.2 ± 1.1 | – | –
298.15 K, x2 = 0.9 | 1006.14 ± 4 | 1740.1 ± 1 | – | –
305.2 K, x2 = 0.2615 | – | – | 51 ± 1.3 | –
305.5 K, x2 = 0.0994 | – | – | 51.7 ± 1.3 | –
305.5 K, x2 = 0.751 | – | – | 52.6 ± 1.2 | –
305.6 K, x2 = 0.4463 | – | – | 51 ± 1.2 | –
305.6 K, x2 = 0.9 | – | – | 52.9 ± 1.2 | –
306 K, x2 = 0.0329 | – | – | 50.8 ± 1.3 | –
306 K, x2 = 0.6509 | – | – | 49.8 ± 1.2 | –
307.99 K, x2 = 0.4463 | – | – | – | 14.6 ± 0.2
308 K, x2 = 0.0329 | – | – | – | 23.1 ± 0.4
308.01 K, x2 = 0.0994 | – | – | – | 22.5 ± 0.4
308.02 K, x2 = 0.751 | – | – | – | 7.24 ± 0.09
308.02 K, x2 = 0.9 | – | – | – | 2.98 ± 0.04
308.03 K, x2 = 0.2615 | – | – | – | 19 ± 0.3
308.03 K, x2 = 0.6509 | – | – | – | 9.74 ± 0.13
308.15 K, x2 = 0 | 1007.82 ± 4.1 | 1785.2 ± 2.2 | – | –
308.15 K, x2 = 0.0329 | 1007.7 ± 4.1 | 1785.2 ± 2.2 | – | –
308.15 K, x2 = 0.0993 | 1007.45 ± 4 | 1784.4 ± 2.1 | – | –
308.15 K, x2 = 0.2615 | 1006.85 ± 4 | 1783.8 ± 1.8 | – | –
308.15 K, x2 = 0.4463 | 1005.97 ± 4 | 1784.8 ± 1.5 | – | –
308.15 K, x2 = 0.6509 | 1004.63 ± 4 | 1785.9 ± 1.2 | – | –
308.15 K, x2 = 0.751 | 1003.96 ± 4 | 1781.8 ± 1.1 | – | –
308.15 K, x2 = 0.9 | 999.99 ± 4 | 1726.6 ± 1 | – | –
312.9 K, x2 = 0.2615 | – | – | 50.6 ± 1.3 | –
313.2 K, x2 = 0.751 | – | – | 52 ± 1.2 | –
313.5 K, x2 = 0.4463 | – | – | 50.4 ± 1.2 | –
313.8 K, x2 = 0.0994 | – | – | 51.1 ± 1.3 | –
313.8 K, x2 = 0.6509 | – | – | 49.3 ± 1.2 | –
313.9 K, x2 = 0.0329 | – | – | 50.3 ± 1.3 | –
316.2 K, x2 = 0.9 | – | – | 52.2 ± 1.2 | –
318.02 K, x2 = 0.0329 | – | – | – | 17.4 ± 0.3
318.03 K, x2 = 0.4463 | – | – | – | 11 ± 0.2
318.04 K, x2 = 0.751 | – | – | – | 5.47 ± 0.07
318.05 K, x2 = 0.2615 | – | – | – | 14.4 ± 0.2
318.05 K, x2 = 0.9 | – | – | – | 2.33 ± 0.03
318.06 K, x2 = 0.0994 | – | – | – | 16.9 ± 0.3
318.06 K, x2 = 0.6509 | – | – | – | 7.37 ± 0.09
318.15 K, x2 = 0 | 1002.33 ± 4.1 | 1761 ± 2.2 | – | –
318.15 K, x2 = 0.0329 | 1002.21 ± 4.1 | 1760.7 ± 2.2 | – | –
318.15 K, x2 = 0.0993 | 1001.88 ± 4 | 1760 ± 2.1 | – | –
318.15 K, x2 = 0.2615 | 1001.22 ± 4 | 1759.7 ± 1.8 | – | –
318.15 K, x2 = 0.4463 | 1000.21 ± 4 | 1761.1 ± 1.5 | – | –
318.15 K, x2 = 0.6509 | 998.57 ± 4 | 1762.5 ± 1.2 | – | –
318.15 K, x2 = 0.751 | 997.71 ± 4 | 1759.7 ± 1.1 | – | –
318.15 K, x2 = 0.9 | 993.7 ± 4 | 1711.2 ± 1 | – | –
323.9 K, x2 = 0.0994 | – | – | 50.3 ± 1.3 | –
324.1 K, x2 = 0.2615 | – | – | 49.6 ± 1.3 | –
324.2 K, x2 = 0.751 | – | – | 51.1 ± 1.2 | –
324.4 K, x2 = 0.9 | – | – | 51.7 ± 1.2 | –
324.5 K, x2 = 0.4463 | – | – | 49.6 ± 1.2 | –
324.6 K, x2 = 0.6509 | – | – | 48.9 ± 1.2 | –
324.9 K, x2 = 0.0329 | – | – | 49.5 ± 1.3 | –
333.04 K, x2 = 0.0329 | – | – | – | 12.1 ± 0.2
333.07 K, x2 = 0.4463 | – | – | – | 7.72 ± 0.11
333.07 K, x2 = 0.751 | – | – | – | 3.81 ± 0.05
333.07 K, x2 = 0.9 | – | – | – | 1.68 ± 0.02
333.08 K, x2 = 0.2615 | – | – | – | 10.1 ± 0.2
333.09 K, x2 = 0.6509 | – | – | – | 5.14 ± 0.07
333.1 K, x2 = 0.0994 | – | – | – | 11.7 ± 0.2
333.15 K, x2 = 0 | 994.14 ± 4.1 | 1724.7 ± 2.2 | – | –
333.15 K, x2 = 0.0329 | 993.99 ± 4.1 | 1724.4 ± 2.2 | – | –
333.15 K, x2 = 0.0993 | 993.64 ± 4 | 1723.9 ± 2.1 | – | –
333.15 K, x2 = 0.2615 | 992.88 ± 4 | 1724 ± 1.8 | – | –
333.15 K, x2 = 0.4463 | 991.65 ± 4 | 1725.6 ± 1.5 | – | –
333.15 K, x2 = 0.6509 | 989.51 ± 4 | 1727 ± 1.2 | – | –
333.15 K, x2 = 0.751 | 988.31 ± 4 | 1724.7 ± 1.1 | – | –
333.15 K, x2 = 0.9 | 983.98 ± 4 | 1684.9 ± 1 | – | –
